According to PubChem BioAssay AID330 (DTP/NCI, 2004):
Where “and” joins values, the source holds several entries; their conditions need not be identical. Equal entries are not always repeated. Toxic doses and inconclusive results are not listed. The calls were made as follows: active = survival T/C of 150% or more; inactive = T/C below 125% in these data.

Test system: P388 leukemia ip, CD2F1 mice, survival T/C
Test: NCI In Vivo Anticancer Drug Screen. Data for tumor model P388 Leukemia (intraperitoneal) in CD2F1 (CDF1) mice
Conditions: endpoint: median survival time, higher = longer survival
Summary of the method: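 Mice carrying the transplanted tumor received test compound or vehicle. Survival was recorded in each group, and the value is the treated-group measurement divided by that of the vehicle-treated control group.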

[1] = dose: 50.0 mg/kg/injection, schedule: Q01DX005 (ip), vehicle: Klucel (hydroxypropylcellulose) (HPC)
[2] = dose: 100.0 mg/kg/injection, schedule: Q01DX005 (ip), vehicle: Klucel (hydroxypropylcellulose) (HPC)
[3] = dose: 200.0 mg/kg/injection, schedule: Q01DX005 (ip), vehicle: Klucel (hydroxypropylcellulose) (HPC)
[4] = dose: 50.0 mg/kg/injection, schedule: Q01DX005 (ip), vehicle: saline with Tween-80
[5] = dose: 100.0 mg/kg/injection, schedule: Q01DX005 (ip), vehicle: saline with Tween-80
[6] = dose: 50.0 mg/kg/injection, schedule: Q01DX009 (ip), vehicle: saline with Tween-80
[7] = dose: 60.0 mg/kg/injection, schedule: Q01DX005 (ip), vehicle: saline with Tween-80
[8] = dose: 120.0 mg/kg/injection, schedule: Q01DX005 (ip), vehicle: saline with Tween-80
[9] = dose: 240.0 mg/kg/injection, schedule: Q01DX005 (ip), vehicle: saline with Tween-80
[10] = dose: 50.0 mg/kg/injection, schedule: Q01DX009 (ip), vehicle: Klucel (hydroxypropylcellulose) (HPC)
[11] = dose: 50.0 mg/kg/injection, schedule: Q01DX009 (ip), vehicle: saline
[12] = dose: 100.0 mg/kg/injection, schedule: Q01DX009 (ip), vehicle: saline
[13] = dose: 200.0 mg/kg/injection, schedule: Q01DX009 (ip), vehicle: saline

Measured: T/C

CC(C)[C@@H](C)/C=C/[C@@H](C)[C@H]1CC[C@@H]2[C@]1(C)CC[C@H]1[C@]23C=C[C@]2(C[C@@H](O)CC[C@]12C)OO3
inactive: dose: 3.75 mg/kg/injection, schedule: Q01DX005 (ip), vehicle: Klucel (hydroxypropylcellulose) (HPC) 93 % of control | dose: 7.5 mg/kg/injection, schedule: Q01DX005 (ip), vehicle: Klucel (hydroxypropylcellulose) (HPC) 93 % of control | dose: 15.0 mg/kg/injection, schedule: Q01DX005 (ip), vehicle: Klucel (hydroxypropylcellulose) (HPC) 86 % of control | dose: 25.0 mg/kg/injection, schedule: Q01DX005 (ip), vehicle: Klucel (hydroxypropylcellulose) (HPC) 90 % of control | dose: 30.0 mg/kg/injection, schedule: Q01DX005 (ip), vehicle: Klucel (hydroxypropylcellulose) (HPC) 90 % of control | [1] 89 % of control | [2] 86 % of control | [3] 98 % of control

[CH3][Ge]([CH3])([CH3])[N]=S=[N][Ge]([CH3])([CH3])[CH3]
inactive: dose: 12.5 mg/kg/injection, schedule: Q01DX005 (ip), vehicle: saline with Tween-80 105 % of control | dose: 25.0 mg/kg/injection, schedule: Q01DX005 (ip), vehicle: saline with Tween-80 100 % of control | [4] 99 % of control and 100 % of control

COc1ccc2cc1Oc1ccc(cc1)C[C@@H]1c3cc(c(OC)cc3CCN1C)Oc1c(OC)c(OC)cc3c1[C@H](C2)N(C)CC3
inactive: dose: 25.0 mg/kg/injection, schedule: Q04DX002 (ip), vehicle: suspension in saline 99 % of control | dose: 50.0 mg/kg/injection, schedule: Q04DX002 (ip), vehicle: suspension in saline 100 % of control | dose: 100.0 mg/kg/injection, schedule: Q04DX002 (ip), vehicle: suspension in saline 100 % of control | dose: 200.0 mg/kg/injection, schedule: Q04DX002 (ip), vehicle: suspension in saline 93 % of control

C[Si](C)(C)Cn1ccc(=O)[nH]c1=O
inactive: dose: 60.0 mg/kg/injection, schedule: Q01DX005 (ip), vehicle: Klucel + Tween-80 94 % of control | dose: 120.0 mg/kg/injection, schedule: Q01DX005 (ip), vehicle: Klucel + Tween-80 92 % of control | dose: 240.0 mg/kg/injection, schedule: Q01DX005 (ip), vehicle: Klucel + Tween-80 98 % of control

O=C(Cn1ccnc1)Nc1ccc(Cl)cc1C(=O)c1ccccc1
inactive: [4] 95 % of control | [5] 92 % of control

COC(=O)[C@@]12OC[C@]34[C@H]([C@@H](O)[C@@H]1O)[C@@]1(C)CC(=O)C(O)=C(C)[C@@H]1C[C@H]3OC(=O)[C@H](OC(=O)C(Cc1ccccc1)NC(=O)OC(C)(C)C)[C@@H]24 (stereo not given in full)
inactive: dose: 125.0 micrograms/kg/injection, schedule: Q01DX005 (ip), vehicle: Klucel (hydroxypropylcellulose) (HPC) 113 % of control | dose: 250.0 micrograms/kg/injection, schedule: Q01DX005 (ip), vehicle: Klucel (hydroxypropylcellulose) (HPC) 100 % of control | dose: 500.0 micrograms/kg/injection, schedule: Q01DX005 (ip), vehicle: Klucel (hydroxypropylcellulose) (HPC) 116 % of control | dose: 1000.0 micrograms/kg/injection, schedule: Q01DX005 (ip), vehicle: Klucel (hydroxypropylcellulose) (HPC) 114 % of control

COC1OCN(Cc2ccccc2)CC1(C)C (stereo not given)
inactive: [6] 108 % of control | dose: 100.0 mg/kg/injection, schedule: Q01DX009 (ip), vehicle: saline with Tween-80 120 % of control

CC(Br)C(=O)c1ccc2cc(Br)c3ccccc3c2c1 (stereo not given)
inactive: dose: 12.5 mg/kg/injection, schedule: Q01DX009 (ip), vehicle: saline with Tween-80 100 % of control | dose: 25.0 mg/kg/injection, schedule: Q01DX009 (ip), vehicle: saline with Tween-80 106 % of control | [6] 116 % of control

C=C(C)C(O)CCCO[Si](c1ccccc1)(c1ccccc1)C(C)(C)C (stereo not given)
inactive: [7] 94 % of control | [8] 95 % of control | [9] 97 % of control

Cc1c(C)[n+](=O)c2ccc(/C=[N+](\C)[O-])cc2n1[O-]
inactive: [10] 98 % of control | dose: 100.0 mg/kg/injection, schedule: Q01DX009 (ip), vehicle: Klucel (hydroxypropylcellulose) (HPC) 100 % of control | dose: 200.0 mg/kg/injection, schedule: Q01DX009 (ip), vehicle: Klucel (hydroxypropylcellulose) (HPC) 101 % of control

COc1ccc2[nH]c(=O)oc(=O)c2c1
inactive: dose: 25.0 mg/kg/injection, schedule: Q01DX009 (ip), vehicle: saline 100 % of control | [11] 96 % of control | [12] 107 % of control | [13] 107 % of control

O=C(O)C(CCCCNC(=S)S)NC(=S)S.[Na+].[Zn+2] (stereo not given)
inactive: [1] 95 % of control | [2] 95 % of control | [3] 102 % of control

O=C1OCCC(O)=C1C=NCc1ccccc1
inactive: dose: 25.0 mg/kg/injection, schedule: Q04DX003 (ip), vehicle: Klucel (hydroxypropylcellulose) (HPC) 105 % of control | dose: 50.0 mg/kg/injection, schedule: Q04DX003 (ip), vehicle: Klucel (hydroxypropylcellulose) (HPC) 104 % of control | dose: 100.0 mg/kg/injection, schedule: Q04DX003 (ip), vehicle: Klucel (hydroxypropylcellulose) (HPC) 99 % of control and 88 % of control

CC(=O)NCCc1ccc2c(c1)OCO2
inactive: dose: 25.0 mg/kg/injection, schedule: Q01DX001 (ip), vehicle: saline + alcohol 105 % of control | dose: 50.0 mg/kg/injection, schedule: Q01DX001 (ip), vehicle: saline + alcohol 99 % of control | dose: 100.0 mg/kg/injection, schedule: Q01DX001 (ip), vehicle: saline + alcohol 98 % of control

COc1cc2c(cc1C(CC(C)=O)c1cc(OC)c(OC)c(OC)c1)OCO2 (stereo not given)
inactive: [7] 100 % of control | [8] 100 % of control | [9] 103 % of control

CC(NC(=O)C1CCCN1C(=O)OC(C)(C)C)C(=O)OCc1ccccc1 (stereo not given)
inactive: dose: 50.0 mg/kg/injection, schedule: Q01DX005 (ip), vehicle: saline + Tween-80 + alcohol 98 % of control | dose: 100.0 mg/kg/injection, schedule: Q01DX005 (ip), vehicle: saline + Tween-80 + alcohol 98 % of control | dose: 200.0 mg/kg/injection, schedule: Q01DX005 (ip), vehicle: saline + Tween-80 + alcohol 99 % of control

[B-]1n2ccc[n+]2[B-]n2ccc[n+]21
inactive: dose: 15.0 mg/kg/injection, schedule: Q01DX005 (ip), vehicle: saline with Tween-80 100 % of control | dose: 30.0 mg/kg/injection, schedule: Q01DX005 (ip), vehicle: saline with Tween-80 100 % of control | [7] 98 % of control

CC(C)Cn1c(Cl)c(/C=N\Nc2ccc([N+](=O)[O-])cc2)c2ccccc21
inactive: dose: 12.5 mg/kg/injection, schedule: Q01DX001 (ip), vehicle: saline 94 % of control | dose: 25.0 mg/kg/injection, schedule: Q01DX001 (ip), vehicle: saline 88 % of control | dose: 50.0 mg/kg/injection, schedule: Q01DX001 (ip), vehicle: saline 96 % of control

CCOS(=O)(=O)c1ccc(C(=O)O)cc1
inactive: [11] 108 % of control | [12] 107 % of control | [13] 107 % of control

CCN(CC)Cc1c(C)nc2ccc(N(C)C)cc2c1Cl
inactive: dose: 12.5 mg/kg/injection, schedule: Q01DX009 (ip), vehicle: Klucel (hydroxypropylcellulose) (HPC) 115 % of control | dose: 25.0 mg/kg/injection, schedule: Q01DX009 (ip), vehicle: Klucel (hydroxypropylcellulose) (HPC) 110 % of control | [10] 100 % of control and 96 % of control

Cc1cccc(/C=C/C(=O)C(C)CN(C)C)c1 (stereo not given)
inactive: dose: 15.0 mg/kg/injection, schedule: Q01DX005 (ip), vehicle: saline 98 % of control | dose: 30.0 mg/kg/injection, schedule: Q01DX005 (ip), vehicle: saline 105 % of control | dose: 60.0 mg/kg/injection, schedule: Q01DX005 (ip), vehicle: saline 107 % of control and 116 % of control

CCOC(=O)C(Cc1ccccc1C(=O)NC)c1ccccc1 (stereo not given)
inactive: dose: 100.0 mg/kg/injection, schedule: Q01DX009 (ip), vehicle: saline sonified 95 % of control | dose: 200.0 mg/kg/injection, schedule: Q01DX009 (ip), vehicle: saline sonified 95 % of control | dose: 400.0 mg/kg/injection, schedule: Q01DX009 (ip), vehicle: saline sonified 95 % of control

CCc1c2c(cc3c1[nH]c1ccccc13)C(=O)OC2=O
inactive: [1] 95 % of control | [2] 86 % of control | [3] 98 % of control

COc1ccc(/C=C/C(C)=O)c(OC)c1
inactive: dose: 100.0 mg/kg/injection, schedule: Q01DX001 (ip), vehicle: Klucel (hydroxypropylcellulose) (HPC) 108 % of control | dose: 200.0 mg/kg/injection, schedule: Q01DX001 (ip), vehicle: Klucel (hydroxypropylcellulose) (HPC) 101 % of control

CCCCCN(CCCCC)CC(O)c1ccc(Cl)c2ccccc12 (stereo not given)
inactive: [4] 103 % of control | [5] 106 % of control | dose: 200.0 mg/kg/injection, schedule: Q01DX005 (ip), vehicle: saline with Tween-80 103 % of control
